Our source for the cytotoxicity values is ChEMBL document CHEMBL3507680, “University of Dundee, Gates Library screen for HepG2 cell viability”.

The nature of this data set: Human HepG2 cell viability assay in 384 well format. Conditions: HepG2 cells, read-out: Inhibition. Set-up: dose 125 nL, time 70.5 hour; concentration not given beside the values. The class given is toxicity, cell-based.
Consider `COCCN(C)C[C@@H]1CN(C(=O)c2ccc(SC)cc2)C[C@@H]1CO`, for which the cytotoxicity at 70.5 h was found to be 12.6%.

As to `Cc1noc(C)c1CN1CCCC1c1nc(-c2ccccc2)no1` (stereo not given), the cytotoxicity at 70.5 h was -2.38%.

`COCCN1CCC(CNC(=O)C2(c3cccc(C)c3)CC2)C1` (stereo not given): the cytotoxicity at 70.5 h turned out to be 17.2%.

As for `CC(NC(=O)Cn1ccc(=O)n(C)c1=O)c1cc(F)ccc1F` (stereo not given), the cytotoxicity at 70.5 h is -1.78%.

Take `Cc1ccc(N2CCO[C@H]3CN(Cc4ccoc4)C[C@H]32)nn1`: the cytotoxicity at 70.5 h is 6.75%.

As to `Cc1ccsc1C(=O)Nc1ccc(N2CCC(O)CC2)c(C#N)c1`, the cytotoxicity at 70.5 h is -0.649%.

`COCCN1CCN(c2cccc(C)n2)Cc2ccc(C)nc21`: the cytotoxicity at 70.5 h worked out at 2.66%.

For the compound `Cc1ncc(C(=O)N2CCCC(C(=O)c3nccn3C)C2)c(O)n1` (stereo not given), the cytotoxicity at 70.5 h was 9.55%.

As to `Cn1cccc(NC(=O)COc2ccc(Br)cc2)c1=O`, the cytotoxicity at 70.5 h came to 21.8%.

As for `COc1c(C2CCCN2C(=O)c2ccoc2C)c(C)nn1C` (stereo not given), the cytotoxicity at 70.5 h was 7.26%.

In the case of `Cc1cc(C(=O)N2CCCC3(COCCN(c4ccccc4)C3)C2)[nH]n1` (stereo not given), the cytotoxicity at 70.5 h is -10.7%.

Take `c1cc(-c2noc(-c3cc(C4CC4)on3)n2)cc(N2CCCCC2)n1`: the cytotoxicity at 70.5 h was -7.87%.

`O=C(c1cc(-c2ccn(CC3CC3)n2)n2ccccc12)N1CCOCC1`: the cytotoxicity at 70.5 h is -2.8%.

Regarding `Cc1cc(C)nc(NC2CCC(=O)N(C)C2)n1` (stereo not given), the cytotoxicity at 70.5 h is -8.23%.

Turning to `CC(C)C(NC(=O)c1cnc(N2CCOCC2)nc1)c1cccs1` (stereo not given), the cytotoxicity at 70.5 h was 7.3%.

Take `O=C1CSC(c2ccc3c(c2)OCO3)c2cn[nH]c2N1` (stereo not given): the cytotoxicity at 70.5 h is -4%.

Take `CC1Cc2cc(-c3cncn3CC(=O)NC(C)(C)C)ccc2N1C` (stereo not given): the cytotoxicity at 70.5 h is -7.08%.

For the compound `Fc1ccc(CNCC2OCCc3cn(CC4CC4)nc32)cc1` (stereo not given), the cytotoxicity at 70.5 h is 5.14%.

Consider `CCCc1cc(C(=O)N(C)Cc2cccc3ncccc23)n(C)n1`, for which the cytotoxicity at 70.5 h is -14.7%.

`CC(C)SCC(=O)N1Cc2cnc(-c3ccccc3)nc2C1`: the cytotoxicity at 70.5 h was -7.54%.

Regarding `O=C(CCNC(=O)c1ccoc1)Nc1cccc(F)c1`, the cytotoxicity at 70.5 h is -6.83%.

With `Cc1nnc2n1CCN(CC(=O)NC(C)c1cc3ccccc3o1)C2` (stereo not given), the cytotoxicity at 70.5 h came out at 2.01%.

As to `CN(C(=O)c1ccncc1F)c1ccccc1S(C)(=O)=O`, the cytotoxicity at 70.5 h was -1.8%.

As for `Cc1nc(-c2ncc(C(=O)NCCNc3ncccc3C)c(O)n2)cs1`, the cytotoxicity at 70.5 h is -2.82%.

In the case of `Cc1cc(C)n(CC2CN(CCC(=O)NC3CCCCC3)CCO2)n1` (stereo not given), the cytotoxicity at 70.5 h was -9.5%.

As to `CC[C@H](C)Nc1nccc(-c2cnc3sc(C)c(C)n3c2=O)n1`, the cytotoxicity at 70.5 h was determined as 23.3%.

On to `NC(=O)NC(CC(=O)NCCc1cccc(F)c1)c1cccs1` (stereo not given), for which the cytotoxicity at 70.5 h amounted to 17%.

Take `Cc1nnc2ccc(N3CCC4(CCOC4)C3)nn12` (stereo not given): the cytotoxicity at 70.5 h is -3.17%.

As to `CC(C)S(=O)(=O)CCN1CCN(C(C#N)c2ccccc2)CC1` (stereo not given), the cytotoxicity at 70.5 h was -7.44%.

In the case of `COc1ccc(CNC(=O)NC2CCN(C)CC2)c(C(F)(F)F)c1`, the cytotoxicity at 70.5 h was 2.4%.

Regarding `O=C(NCc1ccccc1OCC1CC1)C1CCOC1` (stereo not given), the cytotoxicity at 70.5 h is 1.2%.

`Cc1ccc(CN2CCC(n3cc(CN4CCC(O)CC4)nn3)CC2)s1`: the cytotoxicity at 70.5 h is -6.27%.

As to `N#Cc1cnn(C(=O)COc2ccccc2F)c1N`, the cytotoxicity at 70.5 h came to 1.04%.

Regarding `CCCS(=O)(=O)N1CCN(c2cc(-n3cccc3)nc(C)n2)CC1`, the cytotoxicity at 70.5 h is -5.53%.

As for `CCc1nnc(CN2CCN(C(=O)c3cc4ccccc4[nH]3)CC2)o1`, the cytotoxicity at 70.5 h was -3.19%.

On to `Cc1ccc(S(=O)(=O)N2CCOc3ccccc32)cc1C(=O)O`, for which the cytotoxicity at 70.5 h is -1.56%.

For the compound `CN1CCC(N(Cc2ccco2)S(=O)(=O)c2ccc(Br)cc2Cl)CC1`, the cytotoxicity at 70.5 h is 1.77%.

On to `CN(CC(=O)Nc1cc(-c2cc(Cl)cc(Cl)c2)[nH]n1)S(C)(=O)=O`, for which the cytotoxicity at 70.5 h was -5.73%.

For the compound `COC[C@]1(O)CCN(c2cc(C3CC3)ncn2)CC1(C)C`, the cytotoxicity at 70.5 h is -10.5%.

Take `CCc1ccc(O)c(C(=O)N2CCN(CC(=O)N3CCCCC3)CC2)c1`: the cytotoxicity at 70.5 h was 11.8%.

Take `O=C(N1CCCO1)[C@]12COC[C@H]1CN(Cc1cccnc1)C2`: the cytotoxicity at 70.5 h is -7.03%.

As to `COc1nc(C)c(C(=O)N2CCc3[nH]nc(Cc4ccccc4)c3C2)s1`, the cytotoxicity at 70.5 h was -1.57%.

Regarding `Fc1cccc(-n2ccc(CN3CCCCC3Cn3cncn3)n2)c1` (stereo not given), the cytotoxicity at 70.5 h is -13.3%.

Take `CN(Cc1cccc(Cl)c1)Cc1nnsc1Cl`: the cytotoxicity at 70.5 h is -5.2%.

Take `Cn1ncnc1CNC1CCCc2cc(F)ccc21` (stereo not given): the cytotoxicity at 70.5 h was -11.4%.

For the compound `CNC(=O)[C@@H](C1CCCCC1)N1CCC[C@H]1C(=O)NC1CC1`, the cytotoxicity at 70.5 h is -20.1%.

Regarding `O=C(NCC1(O)CCSC1)c1cccc(-n2cccn2)c1` (stereo not given), the cytotoxicity at 70.5 h is -10.4%.

In the case of `OC1(CNc2cc(C(F)(F)F)nc3ccccc23)CCOCC1`, the cytotoxicity at 70.5 h was -4.81%.

In the case of `Cc1cc(CN2C[C@@H](C)[C@@]3(CCN(C)C3=O)C2)oc1C`, the cytotoxicity at 70.5 h was -5.99%.

`Cc1cc(C)cc(C(=O)Nc2cccc(CN3CCCC3C(N)=O)c2)c1` (stereo not given): the cytotoxicity at 70.5 h turned out to be 6.78%.

As for `O=C(N[C@@H]1CCN(Cc2ccc(F)cc2F)C[C@H]1O)c1cccnc1`, the cytotoxicity at 70.5 h was found to be 8.03%.

Take `CSc1ccc(CN(CCO)C(=O)CCc2ccc(O)cc2)cc1`: the cytotoxicity at 70.5 h is -16.6%.

For `CC(C)SCC(=O)NCc1cc2n(n1)CCCN(C1CCCCC1)C2`, the cytotoxicity at 70.5 h came to 25.3%.

For the compound `Cc1noc(C(C)N2CCN(Cc3cccc(C#N)c3)CC2)n1` (stereo not given), the cytotoxicity at 70.5 h is -5.03%.

For `CCN1CCCC1CN(CCN(C)C)S(=O)(=O)c1ccc(C#N)cc1` (stereo not given), the cytotoxicity at 70.5 h amounted to 2.57%.

In the case of `O=C1c2cccnc2OC(CN2CCOCC2)CN1CC1CC1` (stereo not given), the cytotoxicity at 70.5 h is -1.18%.

As to `Fc1ccc(C(NCc2nnc(C3CC3)o2)C2CCC2)cc1` (stereo not given), the cytotoxicity at 70.5 h is -4.6%.

For the compound `Cc1c(-c2nc3cc(S(=O)(=O)N4CCCC4)ccc3n2C)cnn1C`, the cytotoxicity at 70.5 h was -22.4%.

Consider `CCCc1nc(N(C)CCc2noc(C(C)C)n2)c2cnn(C)c2n1`, for which the cytotoxicity at 70.5 h was 5.48%.

For `CS(=O)(=O)N[C@@H]1CN(C(=O)c2cccnc2)[C@@H]2CCCO[C@@H]21`, the cytotoxicity at 70.5 h was -5.12%.

Regarding `c1nc(N2CCCC(Cn3cncn3)C2)c2ccsc2n1` (stereo not given), the cytotoxicity at 70.5 h was 38.8%.

In the case of `Cn1cc(Cl)c(CN2CCn3nc(C(=O)N4CCCC4)cc3C2)n1`, the cytotoxicity at 70.5 h was -4.39%.

As for `Cc1cc(C)n(CC2CN(Cc3cccc(C#N)c3)CCO2)n1` (stereo not given), the cytotoxicity at 70.5 h was -3.79%.

`FC(F)(F)c1ccc2nc([C@H]3CCN(C4CCOCC4)C3)[nH]c2c1`: the cytotoxicity at 70.5 h is -12.9%.

`CCN(C)C(=O)c1ncn2c(C3CCN(S(C)(=O)=O)CC3)ccnc12`: the cytotoxicity at 70.5 h was -5.47%.

In the case of `N#CC1(NC(=O)c2nccc3ccccc23)CCC2(CC1)OCCO2`, the cytotoxicity at 70.5 h is -25.4%.

`CC(C)(C)CN(CCO)C(=O)Nc1cccc(N2CCNC2=O)c1`: the cytotoxicity at 70.5 h was -4.71%.

Turning to `CN(CCc1ccccc1)Cc1c(C2CC2)[nH]c2ncccc12`, the cytotoxicity at 70.5 h was found to be 2.38%.

As for `CC(C)Nc1ncnc2c1CCN(C(=O)Cc1ccccn1)CC2`, the cytotoxicity at 70.5 h amounted to 26.6%.

Turning to `Cc1cccc(OCCNC(=O)Cn2ccc(C)cc2=O)c1`, the cytotoxicity at 70.5 h was -8.95%.
